Experimental data taken from ChEMBL document CHEMBL5523719, “Structure-activity relationship study of new carbazole sulfonamide derivatives as anticancer agents with dual-target mechanism” (Eur J Med Chem, 2024).
Active and inactive are the calls of the source. The calls are words filed in the database; no cut-off is given here.

Assays:
MCF7 [1] = assay: Induction of apoptosis in human MCF7 cells assessed as karyolysis at 1 nM measured after 24 hrs by fluorescent microscopy; format: functional, cell-based
MCF7 [2] = assay: Induction of cell cycle arrest in human MCF7 cells assessed as increase in phosphorylation of histone H3 at […] by Western blot analysis; format: functional, cell-based; details: dose lower 12.5 µM
MCF7 [3] = assay: Induction of apoptosis in human MCF7 cells assessed as necrotic cells at 6.25 nM measured after 48 hrs by AnnexinV/PI double staining assays (reference value: 0.89%); format: functional
MCF7 [4] = assay: Induction of cell cycle arrest in human MCF7 cells assessed as accumulation of cells at G0/G1 phase at 4 nM measured after 24 hrs by flow cytometry (reference value: 61.73%); format: functional
MCF7 [5] = assay: Induction of apoptosis in human MCF7 cells assessed as multinuclear cells at 5 nM measured after 24 hrs by fluorescent microscopy; format: functional
NCI-H460 = assay: Antiproliferation activity against human NCI-H460 cells measured after 72 hrs incubation by MTT assay; format: functional, cell-based; details: NCI-H460, 72 h
MCF7 [6] = assay: Induction of cell cycle arrest in human MCF7 cells assessed as accumulation of cells at G2/M phase at 500 nM measured after 24 hrs by flow cytometry (reference value: 22.84%); format: functional
MCF7 [7] = assay: Induction of apoptosis in human MCF7 cells assessed as karyopyknosis at 5 nM measured after 24 hrs by fluorescent microscopy; format: functional, cell-based
MCF7 [8] = assay: Induction of apoptosis in human MCF7 cells assessed as late apoptotic cells at 50 nM measured after 48 hrs by AnnexinV/PI double staining assays (reference value: 2.60%); format: functional
Tubulin (Homo sapiens) = Tubulin (Homo sapiens) (UniProt P68371+Q9H4B7+P0DPH7+P68366+Q13509+Q71U36+P04350+Q3ZCM7+P07437+P68363+Q9BQE3+Q6PEY2+Q13885+Q9BVA1+Q9BUF5); assay: Inhibition of microtubule assembly in human HepG2 cells assessed as disrupted microtubule network at 50 uM measured after 24 hrs incubation by anti-alpha-tubulin antibody (green) and Hoechst 33342 (blue) stained nuclei were obtained under microscopy; format: cell-based
MCF7 [9] = assay: Induction of apoptosis in human MCF7 cells assessed as late apoptotic cells at 12.5 nM measured after 48 hrs by AnnexinV/PI double staining assays (reference value: 2.60%); format: functional
MCF7 [10] = assay: Induction of apoptosis in human MCF7 cells assessed as viable cells at 25 nM measured after 48 hrs by AnnexinV/PI double staining assays (reference value: 91.20%); format: functional; details: read-out: Activity
MCF7 [11] = assay: Induction of cell cycle arrest in human MCF7 cells assessed as accumulation of cells at G2/M phase at 25 nM measured after 24 hrs by flow cytometry (reference value: 22.84%); format: functional
MCF7 [12] = assay: Induction of apoptosis in human MCF7 cells assessed as late apoptotic cells at 6.25 nM measured after 48 hrs by AnnexinV/PI double staining assays (reference value: 2.60%); format: functional
[13] = target: DNA topoisomerase 2-alpha (Homo sapiens) (UniProt P11388); assay: Inhibition of human DNA topoisomerase 2 assessed as relaxation of supercoiled pBR322 DNA as substrate at 20 uM incubated for 30 mins by gel staining based electrophoresis analysis
Chain of DNA topoisomerase 2-alpha (Homo sapiens) (P11388 whole entry): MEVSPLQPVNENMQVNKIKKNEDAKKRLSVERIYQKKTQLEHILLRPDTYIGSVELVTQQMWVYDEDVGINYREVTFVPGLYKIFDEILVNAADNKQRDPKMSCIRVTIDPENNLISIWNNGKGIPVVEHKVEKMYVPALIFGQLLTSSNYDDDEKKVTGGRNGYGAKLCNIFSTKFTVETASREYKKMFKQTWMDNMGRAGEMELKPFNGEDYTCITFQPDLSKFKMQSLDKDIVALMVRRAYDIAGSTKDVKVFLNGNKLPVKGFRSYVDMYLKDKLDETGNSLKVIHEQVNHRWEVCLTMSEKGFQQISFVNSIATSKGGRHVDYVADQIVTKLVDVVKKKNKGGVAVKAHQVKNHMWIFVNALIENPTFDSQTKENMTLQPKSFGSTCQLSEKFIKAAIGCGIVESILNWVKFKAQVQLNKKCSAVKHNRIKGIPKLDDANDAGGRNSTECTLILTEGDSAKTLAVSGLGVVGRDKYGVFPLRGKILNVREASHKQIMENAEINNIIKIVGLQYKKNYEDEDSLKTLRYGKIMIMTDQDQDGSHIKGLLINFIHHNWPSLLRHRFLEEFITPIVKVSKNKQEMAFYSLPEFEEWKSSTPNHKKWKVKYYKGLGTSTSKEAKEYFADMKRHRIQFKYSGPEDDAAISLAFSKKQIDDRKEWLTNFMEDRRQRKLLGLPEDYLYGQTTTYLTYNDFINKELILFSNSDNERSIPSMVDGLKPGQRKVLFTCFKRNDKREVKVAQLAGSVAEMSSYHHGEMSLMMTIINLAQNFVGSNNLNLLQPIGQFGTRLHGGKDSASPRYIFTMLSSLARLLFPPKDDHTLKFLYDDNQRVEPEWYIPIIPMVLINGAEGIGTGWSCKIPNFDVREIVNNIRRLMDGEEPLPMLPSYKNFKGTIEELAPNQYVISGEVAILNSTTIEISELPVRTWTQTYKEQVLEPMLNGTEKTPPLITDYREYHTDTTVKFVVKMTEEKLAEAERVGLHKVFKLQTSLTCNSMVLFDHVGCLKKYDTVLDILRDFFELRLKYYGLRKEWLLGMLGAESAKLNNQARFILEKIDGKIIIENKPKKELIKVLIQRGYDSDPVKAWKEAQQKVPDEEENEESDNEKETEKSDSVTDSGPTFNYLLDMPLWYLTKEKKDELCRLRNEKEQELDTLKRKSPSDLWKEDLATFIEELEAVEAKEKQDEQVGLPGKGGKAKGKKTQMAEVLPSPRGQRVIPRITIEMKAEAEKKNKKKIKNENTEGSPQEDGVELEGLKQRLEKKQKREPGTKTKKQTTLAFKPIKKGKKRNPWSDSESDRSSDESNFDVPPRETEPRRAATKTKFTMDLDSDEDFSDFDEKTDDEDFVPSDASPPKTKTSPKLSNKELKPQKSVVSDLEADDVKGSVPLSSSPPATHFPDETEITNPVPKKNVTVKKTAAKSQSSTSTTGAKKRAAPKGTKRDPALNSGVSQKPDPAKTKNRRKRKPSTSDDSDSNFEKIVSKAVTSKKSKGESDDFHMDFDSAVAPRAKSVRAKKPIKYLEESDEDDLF

HMEC-1 = assay: Angiogenic activity against human HMEC-1 cells assessed as decrease in vascular area measured after 48 hrs by Endothelial tube formation assay; format: functional, cell-based; details: dose 1-100 nM
MIA PaCa-2 = assay: Antiproliferation activity against human MIA PaCa-2 cells measured after 72 hrs incubation by MTT assay; format: functional, cell-based; details: MIA PaCa-2, 72 h
L02 = assay: Antiproliferation activity against human L02 cells measured after 72 hrs incubation by MTT assay; format: functional, cell-based; details: L02, 72 h
MCF7 [14] = assay: Induction of apoptosis in human MCF7 cells assessed as necrotic cells at 12.5 nM measured after 48 hrs by AnnexinV/PI double staining assays (reference value: 0.89%); format: functional
MCF7 [15] = assay: Induction of cell cycle arrest in human MCF7 cells assessed as accumulation of cells at G0/G1 phase at 25 nM measured after 24 hrs by flow cytometry (reference value: 61.73%); format: functional

- IC50 (NCI-H460): 18 nM
- inhibition (Tubulin (Homo sapiens)): Active
- inhibition [13]: inactive
- IC50 (MIA PaCa-2): 13.3 nM
Compound: COc1cc(NS(=O)(=O)c2ccc3c(c2)c2ccc(N)cc2n3C)c(OC)cc1Cl
- Activity (MCF7 [1]): Active
- Activity (MCF7 [2]): Dose-Dependent Effect
- Activity (MCF7 [3]): 0.1%
- Activity (MCF7 [4]): 47.57%
- Activity (MCF7 [5]): Active
- Activity (MCF7 [6]): 53.2%
- Activity (MCF7 [7]): Active
- Activity (MCF7 [8]): 14.69%
- Activity (MCF7 [9]): 8.66%
- viability at 0.025 µM (MCF7 [10]): 39.3%
- Activity (MCF7 [11]): 31.9%
- Activity (MCF7 [12]): 7.06%
- Activity (HMEC-1): Dose-Dependent Effect
- IC50 (L02): 18.5 nM
- Activity (MCF7 [14]): 0.14%
- Activity (MCF7 [15]): 36.18%
